The assay deals with U87 cells. In words: Flow cytometry detection of PPIX in U87 cells exposed to 5-ALA. It counts as cell-based. As to conditions: serum-free, 5-ALA 250 μg/ml, excitation 406 nm, filter 610/20. The method, then: U87 cells representative of GBM tumors grown in T-75 flasks, in the absence of serum, were exposed to 5-aminolevulinic acid ([…]; 250 μg/ml) for 4 or 24 hours. Following exposure, cells were subjected to fluorescent excitation in a LSRII flow cytometer with an excitation at 406 nm violet wave length. Filter specifications were set at either 450/50, or set at 610/20 for the detection of protoporphyrin IX (PPIX).
On the technique in general: Flow cytometry measures light scatter and fluorescence of single cells or particles in a stream.

Turning to `NCC(=O)CCC(=O)O` [5-ALA, 5-aminolevulinic acid], the “mean fluorescence index (MFI), PPIX” value is, setting by setting: (4 hours) “MFI increased”; (24 hours) “MFI increased”.

(Values after patent US11307204B2, “5-ALA for detection of brain tumors” (PIOMA, INC., priority 2012, dated 2022).)
